According to US9814758B2, “Inhibitors of apoptosis and uses thereof” (CENTRE NATIONAL DE LA RECHERCHE SCIENTIFIQUE-CNRS, priority 2010, dated 2017):
Non-standard residues stand in square brackets, D forms with d. Residues, ends and D or L forms follow the SMILES beside them. No end group written: not given here. Ahx = NCCCCCC(=O)O

Assays:
[1] = Stability in 20% mouse serum (reverse-phase HPLC); type: in vitro ADME; conditions: 37° C.; for remaining at 2 h: 2 h incubation, read-out: peptide still intact; for peptide degradation: after 24 hours
Procedure: FIG. 3: Evaluation of Tat-DAXXp and Pip2b-DAXXp protease ability. (A) Stability measurements of Tat-DAXXp and Pip2b-DAXXp conjugates in fetal bovine serum (FBS, BioWest) and (B) freshly prepared mouse serum (MS). Peptides were incubated with 20% serum at 37° C. for 0 h, 1 h, 2 h, 4 h, 8 h, 24 h, and 48 h, and 50 μl of the incubation mixture was precipitated in 100 μl 10% dichloroacetic acid (DCA) in H2O/CH3CN (50/50). The samples were mixed and kept at −20° C. The precipitated serum proteins were separated by centrifugation (14,000 rpm, 10 minutes) and the supernatant was analyzed by reverse-phase HPLC (measurement of the peak area in mV*sec). n≧2 for each condition.

[2] = tested on: C57Bl6 mice, myocardial ischemia-reperfusion; test: Myocardial ischemia-reperfusion IR60' (40 min ischemia, 60 min reperfusion); type: in vivo, mouse
Procedure: FIG. 11: In vivo experimental protocol. C57Bl6 mice underwent a surgical protocol of myocardial ischemia-reperfusion (IR). The black box represents the period of ischemia to which the mice were submitted. Infarct size or cell death measurements were performed at the end of surgery for each protocol (indicated by ↑). IR60′: 40 minutes of Ischemia, 60 minutes of Reperfusion. IR24h: 40 minutes Ischemia and 24 hours Reperfusion.
FIG. 12: Cardioprotective effects of Tat-DAXXp (1 mg/kg—IV) in mice subjected to IR60′. Infarct size (in % of area at risk) and internucleosomal DNA fragmentation determined by ELISA were quantified in mice subjected to IR60′ and treated with Tat, Tat-DAXXp or Tat-scrDAXXp (1 mg/kg) as well as with DAXXp (10 mg/kg) (intravenous injection (IV) 5 minutes before reperfusion). Means±SEM were plotted for (A): Area at risk/LV mass (left ventricle), (B): Infarct size (in % of area at risk) and (C): (I/NI ratio) corresponding to the ratio of soluble nucleosome in the ischemic portion versus the non-ischemic portion of LV tissues. Statistical analysis was performed using One-way ANOVA with Neuman-Keuls post test for multiple comparisons (GraphPad Prism software). P<0.05, P<0.01 and P<0.001 versus Tat-DAXXp were noted *, **, and *** respectively. P=ns (not significant) for P>0.05.
FIG. 13: Dose response for Tat-DAXXp and DAXXp in mice subjected to IR60′. Infarct size (in % of area at risk) and internucleosomal DNA fragmentation determined by ELISA were quantified in mice subjected to IR60′ and treated with Tat (1 mg/kg), Tat-DAXXp (0.1, 1 and 10 mg/kg) or DAXXp (0.1, 1 and 10 mg/kg) injected intravenously 5 minutes before reperfusion. Means±SEM were plotted for (A): Area at risk/LV mass (left ventricle), (B): Infarct size (in % of area at risk) and (C): (I/NI ratio) corresponding to the ratio of soluble nucleosome in the ischemic versus the non-ischemic portion of LV tissues.
In a second step, the cardioprotective effects of DAXXp were evaluated in an in vivo model of myocardial ischemia-reperfusion. Acute myocardial ischemia and reperfusion were performed in C57Bl6 mice subjected to a surgical model of reversible coronary occlusion. Male mice (22-28 g) were anesthetized and ventilated via a tracheal intubation using a Harvard rodent respirator. Body temperature was maintained between 36.8° C. and 37.0° C. via a thermo-regulated surgical table. The chest was opened by left lateral thoracotomy and a reversible coronary artery snare occluder was placed around the left coronary artery. Mice were randomly allocated to two different surgical protocols of myocardial ischemia-reperfusion (FIG. 11). At the end of reperfusion, the artery was re-occluded and phtalocyanine blue dye was injected into the left ventricle cavity and allowed to perfuse the non-ischemic portions of the myocardium. To determine the effect of DAXXp on myocardial infarct size, peptides were administered intravenously (caudal vein) 5 minutes before reperfusion during the surgical protocol of ischemia-reperfusion. The control groups were treated with Tat or Pip2b peptide (for CPP alone). The dose of 1 mg/kg was chosen (μmolar range) and dose responses for 0.1 and 10 mg/kg were also tested.
At the end of reperfusion, mice were re-anaesthetized, the coronary ligature definitively tightened, the blue dye injected and the harvested left ventricles were dedicated to infarct size (TTC method, Schwartz et al, J Thromb. Thromb., 2000; 10: 181-187) or DNA fragmentation measurements (Cell death detection ELISA^PLUS kit, Roche Diagnostics) in order to investigate the cardioprotective effects against ischemia-reperfusion injuries.

C2C12 cells = test: STS-induced DNA fragmentation (Cell Death detection ELISA PLUS) in C2C12 cells; type: cell-based, mouse; conditions: murine C2C12 (model for muscle cells); FIG. 5A
Procedure: FIG. 5: In vitro evaluation of the anti-apoptotic activity of CPPs and CPP-conjugates. Workflow and quantitation of DNA fragmentation in (A) C2C12 cells, (B) primary cardiomyocytes, (C) H9c2 cells and (D) NG108-15 cells. Data were normalized to 100% STS. Data shown are the means±SEM, with n≧5. Cells were seeded in 24-well plates and grown overnight. The next day, the cells were incubated with STS alone or with STS+1 μM peptide (in OPTI-MEM) (OPTI-MEM® is a modification of Eagle's Minimum Essential Media, buffered with HEPES and sodium bicarbonate, and supplemented with hypoxanthine, thymidine, sodium pyruvate, L-glutamine, trace elements, and growth factors) (STS concentration and incubation time for each cells are given in the figure). […] Following the regeneration phase, the cells were lyzed and DNA fragmentation was detected according to manufacturer's instructions (Cell Death detection ELISA^PLUS kit—Roche Diagnostics). […]
Thereafter, the capacity of these peptides to inhibit apoptosis induced by staurosporine was evaluated. Apoptosis was determined using the Cell Death detection ELISA^PLUS kit (Roche) measuring the DNA fragmentation.
The anti-apoptotic effects of the peptides were also analyzed in murine NG118-15 (model for neuronal cells) (FIG. 5D), in murine C2C12 (model for muscle cells) (FIG. 5A) and in rat H9c2 (model for cardiac cells) (FIG. 5C). […]

Row | Compound | remaining at 2 h [1] [%] | peptide degradation [1] | cardioprotection (infarct size, DNA fragmentation) ([2]; IR60', data not shown) | decrease of infarct size ([2]; 10 mg/kg injected alone (without CPP)) | reduction in DNA fragmentation (C2C12 cells) [%] | specific DNA fragmentation in left ventricles versus Tat-injected mice ([2]; 1 mg/kg IV, IR60') | decrease of infarct size versus Tat peptide alone ([2]; 1 mg/kg intravenously 5 min before reperfusion, after 1 hour-reperfusion, p<0.01) [%] | dose of maximal effect ([2]; dose response 0.1, 1 and 10 mg/kg IV, FIG. 13) [mg/kg]
1 | CC[C@H](C)[C@H](NC(=O)[C@H](Cc1c[nH]cn1)NC(=O)[C@@H](NC(=O)[C@H](CCCNC(=N)N)NC(=O)CCCCCNC(=O)[C@H](CCCNC(=N)N)NC(=O)[C@H](CCCNC(=N)N)NC(=O)CCCCCNC(=O)[C@H](CCCNC(=N)N)NC(=O)[C@H](CCCNC(=N)N)NC(=O)CCCCCNC(=O)[C@@H](N)CCCNC(=N)N)[C@@H](C)CC)C(=O)N[C@@H](CC(C)C)C(=O)N[C@@H](Cc1ccccc1)C(=O)N[C@@H](CCC(N)=O)C(=O)N[C@@H](CC(N)=O)C(=O)N[C@H](CCCNC(=N)N)C(=O)N[C@@H](CCCNC(=N)N)C(=O)N[C@@H](CCSC)C(=O)N[C@@H](CCCCN)C(=O)N[C@@H](Cc1c[nH]c2ccccc12)C(=O)N[C@@H](Cc1c[nH]cn1)C(=O)N[C@@H](CCCCN)C(=O)N[C@@H](CCCCN)C(=O)N[C@@H](CCCCN)C(=O)N[C@@H](CO)C(=O)N[C@@H](CCCNC(=N)N)C(=O)N[C@@H](CCCCN)C(=O)N[C@@H](CCC(=O)O)C(=O)N[C@@H](CCCCN)C(=O)N[C@@H](CCCCN)C(=O)N[C@@H](CCC(N)=O)C(=O)N[C@H](C(=O)NCC(=O)N[C@@H](CO)C(=O)NCC(=O)N1CCC[C@H]1C(=O)N[C@@H](CC(C)C)C(=O)NCC(N)=O)[C@@H](C)O [Pip2b-DAXXp, (RXR)3-IHILFQNrRMKWHK-KKSRKEKKQTGSGPLG-NH2] (H-R[Ahx]RR[Ahx]RR[Ahx]RIHILFQN[dR]RMKWHKKKSRKEKKQTGSGPLG-NH2; N-terminus assumed) | > 70 | all the peptide are degraded | not observed |  |  |  |  | 
2 | KKSRKEKKQTGSGPLG-NH2 [DAXXp, KKSRKEKKQTGSGPLG-NH2] |  |  |  | to the same extent than Tat-DAXXp |  |  |  | 
3 | GRKKRRQRRRPPQKKSRKEKKQTGSGPLG-NH2 [Tat-DAXXp, GRKKRRQRRRPPQ-KKSRKEKKQTGSGPLG-NH2] | > 70 | all the peptide are degraded |  |  | 24 | drastic decrease | 53.4 | 1
